pEC50: −log10 of the molar value.
Molecular target: T1, LXRβ (Homo sapiens, UniProt P55055)
T1 construct: Co-transfection expression plasmids, comprising full-length LXRα (pCMX-h LXRα or LXRβ (pCMX-hLXRβ)); expressed in transfected cells; host or cells: CV-1 African green monkey kidney cells, transient transfection with pCMX-hLXRβ
T1 sequence (P55055 1-460): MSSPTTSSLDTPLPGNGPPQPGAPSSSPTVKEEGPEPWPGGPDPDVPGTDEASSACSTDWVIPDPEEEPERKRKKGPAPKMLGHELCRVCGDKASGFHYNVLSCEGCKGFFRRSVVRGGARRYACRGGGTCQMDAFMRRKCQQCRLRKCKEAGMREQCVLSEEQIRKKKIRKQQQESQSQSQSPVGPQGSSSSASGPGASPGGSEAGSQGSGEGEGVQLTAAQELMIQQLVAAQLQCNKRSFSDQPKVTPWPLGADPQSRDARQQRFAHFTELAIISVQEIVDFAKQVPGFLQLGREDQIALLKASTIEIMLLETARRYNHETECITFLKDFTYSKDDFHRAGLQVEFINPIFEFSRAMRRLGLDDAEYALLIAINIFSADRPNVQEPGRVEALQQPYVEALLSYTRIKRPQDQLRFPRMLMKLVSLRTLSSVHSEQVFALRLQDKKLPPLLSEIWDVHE
T1 sequence (P19793 1-462 partner): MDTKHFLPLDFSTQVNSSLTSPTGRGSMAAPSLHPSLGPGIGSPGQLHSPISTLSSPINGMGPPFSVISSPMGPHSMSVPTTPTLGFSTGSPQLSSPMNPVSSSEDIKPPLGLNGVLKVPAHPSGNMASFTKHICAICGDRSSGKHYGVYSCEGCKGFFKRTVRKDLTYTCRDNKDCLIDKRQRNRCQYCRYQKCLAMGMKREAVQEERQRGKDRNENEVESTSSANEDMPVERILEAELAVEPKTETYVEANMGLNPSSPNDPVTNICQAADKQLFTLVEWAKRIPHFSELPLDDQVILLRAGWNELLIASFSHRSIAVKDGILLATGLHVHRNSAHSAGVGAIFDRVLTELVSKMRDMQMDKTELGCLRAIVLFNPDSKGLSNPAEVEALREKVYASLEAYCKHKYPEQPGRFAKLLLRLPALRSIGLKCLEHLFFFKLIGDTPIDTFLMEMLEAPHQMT
Test: LXR/LXRE co-transfection assay (luciferase reporter) in CV-1 cells, LXRβ
Format: cell-based
Conditions: for pEC50: CV-1 cells transfected with pCMX-hLXRβ and LXREx1-Tk-Luciferase, 20 hours incubation, read-out: LXRbeta agonism EC50; for Emax: CV-1 cells, relative to maximum response of high control N-(3-((4-fluorophenyl)-(naphthalene-2-sulfonyl)amino)propyl)-2,2-dimethylpropionamide, read-out: LXRbeta % EFFICACY
Source text: To measure the ability of compounds to activate or inhibit the transcriptional activity of LXR in a cell based assay, the co-transfection assay was used. It has been shown that LXR functions as a heterodimer with RXR. For the co-transfection assay, expression plasmids for LXRα and LXRβ are introduced separately via transient transfection into mammalian cells along with a luciferase reporter plasmid that contains one copy of a DNA sequence that is bound by LXR-RXR heterodimers (LXRE; Willy, P. et. al. 1995). LXRs heterodimerize with the endogenous RXR. Treatment of transfected cells with an LXR agonist increases the transcriptional activity of LXR, which is measured by an increase in luciferase activity.
Co-transfection expression plasmids, comprising full-length LXRα (pCMX-h LXRα or LXRβ (pCMX-hLXRβ), reporter plasmid (LXREx1-Tk-Luciferase), and control (pCMX-Galactosidase expression vector) (Willey et al. Genes & Development 9 1033-1045 (1995)).
CV-1 cells were prepared 24 hours prior to the experiment by plating them into T-175 flasks or 500 cm^2 dishes in order to achieve 70-80% confluency on the day of the transfection. The number of cells to be transfected was determined by the number of plates to be screened. Each well of a 384 well plate requires 1.5×10^4 cells. DNA Transfection Reagent was prepared by mixing the required plasmid DNAs with a cationic lipid transfection reagent Transit 2020 (Mirus Bio) for CV1 by following the instructions provided with the reagents. Optimal DNA amounts were determined empirically per cell line and size of vessel to be transfected. For each T175 cm^2 flask a total of 44.4 ug for CV1 of DNA, 133 ul Transit2020 and 4.5 ml DMEM for CV1 was mixed and added. Cells were then incubated at least 5 hours at 37° C. to prepare screening cells.
Assay plates were prepared by dispensing 5 μL of compound per well of a 384 well plate to achieve final compound concentration of 10 μM and no more than 0.5% DMSO. Media was removed from the screening cells, the cells trypsinized, harvested cells by centrifugation, counted, and plated at a density of approximately 1.5×10^4 cells in the 384 well assay plate prepared above in a volume of about 95 uL. Assay plates containing both compounds and screening cells (100 μL in total volume) were incubated for 20 hours at 37° C.
After incubation with compounds, media was removed from the cells and luciferase assay reagent (30 μL/well) added. After ˜2 minutes at ambient temperature, the assay plates were read on a luminometer (PE Biosystems Northstar reader with on-board injectors, or Envision (Perkin Elmer) or equivalent).
The LXR/LXRE co-transfection assay can be used to establish the EC50/IC50 values for potency and percent activity or inhibition for efficacy. Efficacy defines the activity of a compound relative to a high control ((N-(3-((4-fluorophenyl)-(naphthalene-2-sulfonyl)amino)propyl)-2,2-dimethylpropionamide)) or a low control (DMSO/vehicle). The dose response curves are generated from a 10 point curve with concentrations differing by ½ LOG units. Each point represents the average of 4 wells of data from a 384 well plate.
The data from this assay is fitted to the following equation, from which the EC50 value may be solved: Y=Bottom+(Top−Bottom)/(1+10^((log EC50-X)*HillSlope)).
The EC50/IC50 is therefore defined as the concentration at which an agonist or antagonist elicits a response that is halfway between the Top (maximum) and Bottom (baseline) values. The EC50/IC50 values represented are the averages of at least 2 and normally 3 independent experiments. The determination of the relative efficacy or % control for an agonist is by comparison to the maximum response achieved by ((N-(3-((4-fluorophenyl)-(naphthalene-2-sulfonyl)-amino)propyl)-2,2-dimethylpropionamide) that is measured individually in each dose response experiment.
Table 1 lists LXRβ EC50 values and % efficacy measurements in the cotransfection assay for examples of this invention.

`Cn1nc(C(F)(F)C(=O)NC(C)(C)CO)cc1-c1ccc(-c2cc(F)c(CO)c(S(C)(=O)=O)c2)cc1-n1nncc1-c1ccc(OC(F)(F)F)cc1` [Example 27, 2,2-difluoro-2-(5-(3′-fluoro-4′-(hydroxymethyl)-5′-(methylsulfonyl)-3-(5-(4-(trifluoromethoxy)phenyl)-1H-1,2,3-triazol-1-yl)-[1,1′-biphenyl]-4-yl)-1-methyl-1H-pyrazol-3-yl)-N-(1-hydroxy-2-methylpropan-2-yl)acetamide] was tested, and the pEC50 was 5.81 and the Emax was 111%.

In the case of `Cn1nc(C(F)(F)C(=O)NC(C)(C)CO)cc1-c1ccc(-c2cccc(S(C)(=O)=O)c2)cc1-n1nncc1-c1ccc(OC(F)(F)F)cc1` [Example 28, 2,2-difluoro-N-(1-hydroxy-2-methylpropan-2-yl)-2-(1-methyl-5-(3′-(methylsulfonyl)-3-(5-(4-(trifluoromethoxy)phenyl)-1H-1,2,3-triazol-1-yl)-[1,1′-biphenyl]-4-yl)-1H-pyrazol-3-yl)acetamide], the pEC50 was 6.30 and the Emax was 107%.

`Cn1nc(C(F)(F)CNCCO)cc1-c1ccc(-c2cccc(S(C)(=O)=O)c2)cc1-n1nncc1-c1ccc(OC(F)(F)F)cc1` [Example 29, 2-((2,2-difluoro-2-(1-methyl-5-(3′-(methylsulfonyl)-3-(5-(4-(trifluoromethoxy)phenyl)-1H-1,2,3-triazol-1-yl)-[1,1′-biphenyl]-4-yl)-1H-pyrazol-3-yl)ethyl)amino)ethanol] gave a pEC50 of 5.91 and an Emax of 80%.

`Cn1nc(C(F)(F)C#N)cc1-c1ccc(-c2cccc(S(C)(=O)=O)c2)cc1-n1nncc1-c1ccc(OC(F)(F)F)cc1` [Example 30, 2,2-difluoro-2-(1-methyl-5-(3′-(methylsulfonyl)-3-(5-(4-(trifluoromethoxy)phenyl)-1H-1,2,3-triazol-1-yl)-[1,1′-biphenyl]-4-yl)-1H-pyrazol-3-yl)acetonitrile] showed a pEC50 of 5.96 and an Emax of 15%.

In the case of `Cn1nc(C(F)(F)C(C)(C)O)cc1-c1ccc(-c2cccc(S(C)(=O)=O)c2)cc1-n1nncc1-c1ccc(Cl)cc1` [Example 31, 1-(5-(3-(5-(4-chlorophenyl)-1H-1,2,3-triazol-1-yl)-3′-(methylsulfonyl)-[1,1′-biphenyl]-4-yl)-1-methyl-1H-pyrazol-3-yl)-1,1-difluoro-2-methylpropan-2-ol], the pEC50 was 6.25 and the Emax was 50%.

Molecule `Cn1nc(C(F)(F)C(N)=O)cc1-c1ccc(-c2cccc(S(C)(=O)=O)c2)cc1-n1nncc1-c1ccc(Cl)cc1Cl` [Example 32, 2-(5-(3-(5-(2,4-dichlorophenyl)-1H-1,2,3-triazol-1-yl)-3′-(methylsulfonyl)-[1,1′-biphenyl]-4-yl)-1-methyl-1H-pyrazol-3-yl)-2,2-difluoroacetamide] has a pEC50 of 5.75 and an Emax of 43%.

`Cn1nc(C(F)(F)C(C)(C)O)cc1-c1ccc(-c2cccc(S(C)(=O)=O)c2)cc1-n1nncc1-c1ccc2c(c1)OC(F)(F)O2` [Example 33, 1-(5-(3-(5-(2,2-difluorobenzo[d][1,3]dioxol-5-yl)-1H-1,2,3-triazol-1-yl)-3′-(methylsulfonyl)-[1,1′-biphenyl]-4-yl)-1-methyl-1H-pyrazol-3-yl)-1,1-difluoro-2-methylpropan-2-ol] was tested, and the pEC50 was 5.85 and the Emax was 66%.

Molecule `Cn1nc(C(F)(F)C(C)(C)O)cc1-c1ccc(-c2cc(F)c(CO)c(S(C)(=O)=O)c2)cc1-n1nncc1-c1ccc2c(c1)OC(F)(F)O2` [Example 34, 1-(5-(3-(5-(2,2-difluorobenzo[d][1,3]dioxol-5-yl)-1H-1,2,3-triazol-1-yl)-3′-fluoro-4′-(hydroxymethyl)-5′-(methylsulfonyl)-[1,1′-biphenyl]-4-yl)-1-methyl-1H-pyrazol-3-yl)-1,1-difluoro-2-methylpropan-2-ol] has a pEC50 of 6.06 and an Emax of 63%.

For `Cn1nc(C(F)(F)CO)cc1-c1ccc(-c2cccc(S(C)(=O)=O)c2)cc1-n1nncc1-c1ccc2c(c1)OC(F)(F)O2` [Example 35, 2-(5-(3-(5-(2,2-difluorobenzo[d][1,3]dioxol-5-yl)-1H-1,2,3-triazol-1-yl)-3′-(methylsulfonyl)-[1,1′-biphenyl]-4-yl)-1-methyl-1H-pyrazol-3-yl)-2,2-difluoroethanol], the pEC50 was 5.65 and the Emax was 87%.

`Cn1nc(C(F)(F)CO)cc1-c1ccc(-c2cc(F)c(CO)c(S(C)(=O)=O)c2)cc1-n1nncc1-c1ccc2c(c1)OC(F)(F)O2` [Example 36, 2-(5-(3-(5-(2,2-difluorobenzo[d][1,3]dioxol-5-yl)-1H-1,2,3-triazol-1-yl)-3′-fluoro-4′-(hydroxymethyl)-5′-(methylsulfonyl)-[1,1′-biphenyl]-4-yl)-1-methyl-1H-pyrazol-3-yl)-2,2-difluoroethanol] gave a pEC50 of 5.56 and an Emax of 91%.

Molecule `Cn1nc(C(=O)NC(C)(C)C#N)cc1-c1ccc(-c2cccc(S(C)(=O)=O)c2)cc1-n1nncc1-c1ccc(OC(F)(F)F)cc1` [Example 37, N-(1-cyano-1-methylethyl)-1-methyl-5-[3′-(methylsulfonyl)-3-(5-{4-[(trifluoromethyl)oxy]phenyl}-1H-1,2,3-triazol-1-yl)biphenyl-4-yl]-1H-pyrazole-3-carboxamide] has a pEC50 of 5.81 and an Emax of 47%.

With `CN(C)C(=O)c1cc(-c2ccc(-c3cccc(S(C)(=O)=O)c3)cc2-n2nncc2-c2ccc(OC(F)(F)F)cc2)n(C)n1` [Example 38, N,N,1-trimethyl-5-[3′-(methylsulfonyl)-3-(5-{4-[(trifluoromethyl)oxy]phenyl}-1H-1,2,3-triazol-1-yl)biphenyl-4-yl]-1H-pyrazole-3-carboxamide] the pEC50 was 5.95 and the Emax was 60%.

Molecule `Cn1nc(C(=O)NCC(F)(F)F)cc1-c1ccc(-c2cccc(S(C)(=O)=O)c2)cc1-n1nncc1-c1ccc(OC(F)(F)F)cc1` [Example 39, 1-methyl-5-[3′-(methylsulfonyl)-3-(5-{4-[(trifluoromethyl)oxy]phenyl}-1H-1,2,3-triazol-1-yl)biphenyl-4-yl]-N-(2,2,2-trifluoroethyl)-1H-pyrazole-3-carboxamide] has a pEC50 of 6.11 and an Emax of 79%.

Source: patent US9751869B2, “LXR modulators” (BRISTOL-MYERS SQUIBB COMPANY, priority 2013, dated 2017)
